One data set deals with Leptosphaeria nodorum. Nature of the data set: Activity against leaf blotch on wheat caused by Leptosphaeria nodorum, protective application. It counts as in vivo. As to conditions: protective spray, wheat cultivar Kanzler, inoculated next day, visual rating after 8 days, untreated control 80%. How it is done: The active compounds were prepared as a stock solution with 0.25% by weight of active compound in acetone or DMSO (dimethyl sulfoxide). 1% by weight of the emulsifier Uniperol® EL (wetting agent having emulsifying and dispersing action based on ethoxylated alkylphenols) was added to this solution, and the solution was diluted with water to the desired concentration.
Activity against leaf blotch on wheat caused by Leptosphaeria nodorum, protective application.
Pots with wheat plants of the cultivar “Kanzler” were sprayed to runoff point with an aqueous suspension having the concentration of active compound stated below. The next day, the pots were inoculated with an aqueous spore suspension of Leptosphaeria nodorum. The plants were then placed in a chamber at 20° C. and maximum atmospheric humidity. After 8 days, the leaf blotch on the untreated but infected control plants had developed to such an extent that the degree of infection could be determined visually in %.

On to `Oc1nc2nccnc2c(O)c1-c1c(F)cc(F)cc1F`, for which the “Leaf infection [%] at 250 ppm” value with Leptosphaeria nodorum is on record as 10%.

With `CC1CCN(c2nc3ncncc3c(Cl)c2-c2c(F)cc(F)cc2F)CC1`, the “Leaf infection [%] at 250 ppm” value with Leptosphaeria nodorum worked out at 3%.

`Fc1cc(F)c(-c2c(OCc3ccccc3)nc3ncncc3c2Cl)c(F)c1` (hydrate or solvate) [Example 3, 7-Benzyloxy-5-chloro-6-(2,4,6-trifluorophenyl)pyrido[2,3-d]pyrimidine]: the melting point (commonly the temperature of the solid-liquid transition) was determined as 146 °C.

For the compound `Oc1nc2ncncc2c(O)c1-c1c(F)cc(F)cc1F` [Example 1, 6-(2,4,6-Trifluorophenyl)pyrido[2,3-d]pyrimidine-5,7-diol], the melting point is 348 °C (dec.).

`Fc1cc(F)c(-c2c(Cl)nc3ncncc3c2Cl)c(F)c1` [Example 2, 5,7-Dichloro-6-(2,4,6-trifluorophenyl)pyrido[2,3-d]pyrimidine] showed a melting point of 169 °C.

In the case of `Cc1ccc2c(O)c(-c3c(F)cc(F)cc3F)c(C)nc2n1` [Example 5, 2,7-Dimethyl-3-(2,4,6-trifluorophenyl)-[1,8]naphthyridin-4-ol], the melting point worked out at 315 °C.

The compound `CC1CCN(c2c(-c3c(F)cc(F)cc3F)c(O)nc3ncncc23)CC1` [Example 8, 5-(4-Methylpiperidin-1-yl)-6-(2,4,6-trifluorophenyl)pyrido[2,3-d]pyrimidin-7-ol] had a melting point of 268 °C.

`Fc1cc(F)c(-c2c(Cl)nc3ncncc3c2Cl)c(F)c1` [drawing 26]: the “Leaf infection [%] at 250 ppm” value in the data set on Leptosphaeria nodorum came to 3%.

The values are drawn from patent US20060160811A1, “Aryl-condensed 3-arylpridine compounds and use thereof for controlling pathogenic fungi” (priority 2003, published 2006).
